Experimental data as given in patent US11197885B2, “Collagen enhancing agent made from low acyl gellan gum, methods of making and methods of using the same” (The University of Toledo, priority 2015, dated 2021).

Assays:
[1] = tested on: phosphorylated CREB in differentiated PC12 cells; experiment: nuclear p-CREB immunostaining in differentiated PC12 cells; format: cell-based; details: 1 μM, 24 h
Procedure: (§1) Differentiated PC12 cells and mouse embryonic cortical neurons (E17, DIV14) were treated with mock, dextran, alginate, HA-GAGR, or midi-GAGR (1 μM) for 24 h and fixed in 3.7% paraformaldehyde. The fixed cells and neurons were immunostained with antibodies against α-tubulin and phosopho-CREB (p-CREB) along with DAPI (nucleus).

[2] = tested on: primary mouse cortical neurons (E17, DIV4); experiment: neurite outgrowth in primary mouse cortical neurons; format: cell-based; details: 2 days; midi-GAGR, dextran, alginate 1 μM; LA-GAGR 0.1 μM; HA-GAGR 0.01 μM
Procedure: To analyze the effect of polysaccharides on neurite outgrowth, primary mouse cortical neurons were treated with vehicle (H2O) or 1 μM of dextran, alginate, or midi-GAGR, 0.01 μM of HA-GAGR, or 0.1 μM of LA-GAGR for 2 days prior to immunocytochemistry using anti-α-tubulin antibody and secondary Alexa488nm antibody. An etched grid coverslip containing 200 numbered boxes was used to select neurons objectively for image acquisition and analysis. A total of 24 boxes were randomly selected per treatment group. All the neurons having total neurite length longer than 4 times of the diameter of neuron cell body were chosen for image analysis. The total length of the neurites of each neuron was measured using Metamorph and used to calculate average total neurite length. To examine the effect of polysaccharides on the phosphorylation (activation) of nuclear CREB, neurons were stained with anti-pCREB antibody (Abcam & Santa Cruz biotechnologies, 2nd antibody with Alexa568nm), anti-α-tubulin antibody (Sigma, 2nd antibody with Alexa488nm), and DAPI (Sigma) after two-day incubation with vehicle (H2O) or 1 μM of dextran, alginate, or midi-GAGR, 0.01 μM of HA-GAGR, or 0.1 μM of LA-GAGR. […] The images of neurons on coverslips were taken by confocal microscopy at the same gain (850), offset (−0.01), and exposure time (2 sec). The intensity of the staining of nuclear pCREB was measured using Metamorph and used to calculate average intensity. In addition, the phosphorylation of CREB in the cytosols of mouse cortical neurons treated with polysaccharides were detected by immunoblotting. Primary mouse neurons were dissected from 16 mouse embryos (E17) and plated in the wells of 6-well plates (1×10^6 cells/well), differentiated for 6 days, and treated with polysaccharides for 48 h. […] The protein bands on blots recognized by anti-pCREB (Santa Cruz Biotechnologies) and anti-CREB antibodies were detected on Amersham Hyperfilm™ ECL films (GE Healthcare Life Science) using SuperSignal® West Pico Chemiluminescent Substrate (Thermo Scientific).

[3] = tested on: phosphorylated CREB in mouse embryonic cortical neurons; experiment: nuclear p-CREB immunostaining in embryonic cortical neurons (Example 2); format: cell-based; details: 1 μM, 24 h
Procedure: as §1

[4] = tested on: mouse cortical neurons (E17, DIV5); experiment: LIVE/DEAD assay, pre-treatment of mouse cortical neurons before 4HNE, H2O2 or Aβ42; format: cell-based
Source text: (§2) The protective effect of polysaccharides on primary cortical neurons from 4HNE, H2O2, and Aβ42 peptide (Sigma) was examined using LIVE/DEAD® Viability/Cytotoxicity Assay Kit (Life Technologies). Female pregnant mice (BALB/C, E17, Charles River Laboratories International, Inc.) or female pregnant SD rats (E17, bred in house) were anesthetized and dissected to obtain 8-9 embryos per animal. Cortical neurons were isolated from embryonic brains and differentiated on poly-L-lysine-coated coverslips in B27/neurobasal medium. For drug treatment before free radical treatment, mouse cortical neurons (5 days in vitro [DIV5]) were treated with vehicle (H2O), 1 μM of 5 kD dextran (Sigma), alginate (Sigma), midi-GAGR, 0.01 μM of high acyl gellan gum (HA-GAGR, CPKelco Co.), or 0.1 μM of LA-GAGR for 24 h and then treated with 10 μM 4HNE or 50 μM H2O2 for 24 h, or 2 μM Aβ42 peptide for 48 h prior to viability/cytotoxicity assay. For drug co-treatment with free radicals, rat cortical neurons (DIV5) were treated with 1 μM of dextran, alginate, or midi-GAGR, 0.01 μM of HA-GAGR, or 0.1 μM of LA-GAGR along with either 10 μM 4HNE (24 h) or 2 μM Aβ42 peptide (48 h). To examine the extent to which midi-GAGR-mediated neuroprotection depends on FGFR1, rat cortical neurons (E17, DIV5) were pre-treated with 4 μM SU5402 (Sigma) for 6 h and treated with 10 μM 4HNE and either vehicle or 1 μM midi-GAGR for 24 h prior to cell viability/cytotoxicity assay. As controls, neurons were treated with SU5402, midi-GAGR, 4HNE, 4HNE plus midi-GAGR, or SU5402 plus midi-GAGR.
For cell viability/cytotoxicity measurement, neurons on glass coverslips were incubated in 1×PBS containing 2 μM calcein AM (live cells: green) and 4 μM ethidium homodimer-1 (dead cells: red) for 10 min at 37° C. Immediately thereafter, neurons were imaged by 10×objective using a fluorescence Olympus IX71 microscope (Olympus America Inc., Center Valley, Pa.) and, for the acquisition of high-quality images, using TCS SP5 multi-photon laser scanning confocal microscope.
Midi-GAGR attenuated neurite atrophy caused by free reactive radicals. It is now shown herein that midi-GAGR protect neurons from the death caused by free radical insults. The extent to which midi-GAGR protects the primary culture of rodent cortical neurons from 4HNE and H2O2 was determined. In addition to the radicals, amyloid β peptide (Aβ42) was also tested. Aβ42 peptide is a major causative factor that causes oxidative stress and neuron death. Mouse cortical neurons (E17, DIV5) were treated with 10 μM 4HNE (24 h), 50 μM H2O2 (24 h), or 2 μM Aβ42 peptide (48 h) after the treatment of the neurons with vehicle (H2O), midi-GAGR (1 μM), dextran (1 μM), alginate (1 μM), LA-GAGR (0.1 μM), or HA-GAGR (0.01 μM) for 24 h. The concentrations of 4HNE, H2O2, and Aβ42 peptide were chosen according to their patho-physiological concentrations. The concentrations of LA-GAGR and HA-GAGR were chosen because, within the same volume, the total numbers of sugar units in the polysaccharides at the concentrations are close to that of 1 μM midi-GAGR. The viability of neurons was assessed using LIVE/DEAD® Viability/Cytotoxicity Assay Kit in which membrane-permeant calcein AM is cleaved by esterase in live cells, thus yielding green fluorescence, and membrane-impermeant ethidium homodimer-1 stains the nucleic acids of plasma membrane-compromised cells with red fluorescence. The numbers of green (live) and red (dead) neurons in each condition were counted using Metamorph. Although the intensities of green fluorescent signals in neurons treated with either free radicals or Aβ42 peptide were weak, the neurons were included in the counting. About 8-9% of vehicle-treated neurons died during the process of live/dead cell assay (FIGS. 23A-23F, FIGS. 24A-24C).

[5] = tested on: differentiated dopaminergic PC12 cells exposed to 30 μM 6-OHDA; experiment: LIVE/DEAD viability of differentiated PC12 cells exposed to 6-OHDA; format: cell-based; details: 1 μM for 6 h, then 30 μM 6-OHDA for 24 h
Procedure: Differentiated dopaminergic PC12 cells and primary mouse embryonic cortical neurons (E17, DIV14) were treated with mock (H2O) or 1 μM of dextran, alginate, HA-GAGR, or midi-GAGR for 6 h and insulated by oxidative stressors (30 μM 6-OHDA [PC12] and 10 μM amyloid β peptide [cortical neurons]) for 24 h.

[6] = tested on: pCREB in mouse cortical neurons; experiment: nuclear pCREB in midi-GAGR-treated mouse cortical neurons pre-treated with signaling inhibitors; format: cell-based; details: inhibitor 6 h (SU5402 4 μM, staurosporine 3 nM, U0126 10 μM, LY294002 20 μM, KN-62 10 μM, PF-573228 1 μM), then 1 μM midi-GAGR 48 h
Procedure: To analyze the effect of polysaccharides on neurite outgrowth, primary mouse cortical neurons were treated with vehicle (H2O) or 1 μM of dextran, alginate, or midi-GAGR, 0.01 μM of HA-GAGR, or 0.1 μM of LA-GAGR for 2 days prior to immunocytochemistry using anti-α-tubulin antibody and secondary Alexa488nm antibody. An etched grid coverslip containing 200 numbered boxes was used to select neurons objectively for image acquisition and analysis. A total of 24 boxes were randomly selected per treatment group. All the neurons having total neurite length longer than 4 times of the diameter of neuron cell body were chosen for image analysis. The total length of the neurites of each neuron was measured using Metamorph and used to calculate average total neurite length. To examine the effect of polysaccharides on the phosphorylation (activation) of nuclear CREB, neurons were stained with anti-pCREB antibody (Abcam & Santa Cruz biotechnologies, 2nd antibody with Alexa568nm), anti-α-tubulin antibody (Sigma, 2nd antibody with Alexa488nm), and DAPI (Sigma) after two-day incubation with vehicle (H2O) or 1 μM of dextran, alginate, or midi-GAGR, 0.01 μM of HA-GAGR, or 0.1 μM of LA-GAGR. […] The images of neurons on coverslips were taken by confocal microscopy at the same gain (850), offset (−0.01), and exposure time (2 sec). The intensity of the staining of nuclear pCREB was measured using Metamorph and used to calculate average intensity. In addition, the phosphorylation of CREB in the cytosols of mouse cortical neurons treated with polysaccharides were detected by immunoblotting. Primary mouse neurons were dissected from 16 mouse embryos (E17) and plated in the wells of 6-well plates (1×10^6 cells/well), differentiated for 6 days, and treated with polysaccharides for 48 h. Then, neurons were harvested and lysed in 1% Igepal CA-630 (Sigma)-containing PMEE buffer plus protease and phosphatase inhibitor cocktails (Sigma) for protein extraction. Extracted proteins were separated in 4-12% NuPAGE Bis-Tris protein gels (Life Technologies) and transferred to nitrocellulose membrane (GE Healthcare Life Science, Pittsburgh, Pa.) using a semidry blotter (Hoefer, Inc., San Francisco, Calif.). The protein bands on blots recognized by anti-pCREB (Santa Cruz Biotechnologies) and anti-CREB antibodies were detected on Amersham Hyperfilm™ ECL films (GE Healthcare Life Science) using SuperSignal® West Pico Chemiluminescent Substrate (Thermo Scientific).
Pharmacological agents were used to inhibit signaling molecules downstream of FGFR1 that mediate CREB phosphorylation. […] PF-573228 (PF, 1 μM) that inhibits FAK which sits at the bottleneck of the signaling pathway downstream of NCAM180 was also included to examine whether NCAM180 is involved in midi-GAGR-mediated CREB phosphorylation or not. […]

[7] = tested on: rat cortical neurons (E17, DIV6); experiment: FGFR1 dependence of neuroprotection against 4HNE, LIVE/DEAD assay; format: cell-based
Source text: as §2, with “To examine the extent to which midi-GAGR-mediated neuroprotection depends on FGFR1, rat cortical neurons (E17, DIV5) were pre-treated with 4 μM SU5402 (Sigma) for 6 h and treated with 10 μM 4HNE and either vehicle or 1 μM midi-GAGR for 24 h prior to cell viability/cytotoxicity assay. As controls, neurons were treated with SU5402, midi-GAGR, 4HNE, 4HNE plus midi-GAGR, or SU5402 plus midi-GAGR.” left out

[8] = ABTS Antioxidant Assay Kit; format: biochemical; details: 10 μM
Procedure: The antioxidant capacity of midi-GAGR was measured using ABTS Antioxidant Assay Kit (Zenbio Co.). […] This was slightly stronger than antioxidant capacity of LA-GAGR (10 μM LA-GAGR=15.4 μM trolox) (Table 2).

[9] = tested on: pCREB in mouse cortical neurons; experiment: nuclear pCREB immunostaining in mouse cortical neurons (Example 4); format: cell-based; details: 48 h; midi-GAGR, alginate, dextran 1 μM; LA-GAGR 0.1 μM; HA-GAGR 0.01 μM
Procedure: (§3) To analyze the effect of polysaccharides on neurite outgrowth, primary mouse cortical neurons were treated with vehicle (H2O) or 1 μM of dextran, alginate, or midi-GAGR, 0.01 μM of HA-GAGR, or 0.1 μM of LA-GAGR for 2 days prior to immunocytochemistry using anti-α-tubulin antibody and secondary Alexa488nm antibody. An etched grid coverslip containing 200 numbered boxes was used to select neurons objectively for image acquisition and analysis. A total of 24 boxes were randomly selected per treatment group. All the neurons having total neurite length longer than 4 times of the diameter of neuron cell body were chosen for image analysis. The total length of the neurites of each neuron was measured using Metamorph and used to calculate average total neurite length. […] The intensity of the staining of nuclear pCREB was measured using Metamorph and used to calculate average intensity. In addition, the phosphorylation of CREB in the cytosols of mouse cortical neurons treated with polysaccharides were detected by immunoblotting. […] The protein bands on blots recognized by anti-pCREB (Santa Cruz Biotechnologies) and anti-CREB antibodies were detected on Amersham Hyperfilm™ ECL films (GE Healthcare Life Science) using SuperSignal® West Pico Chemiluminescent Substrate (Thermo Scientific). […]

[10] = tested on: pCREB in mouse cortical neurons; experiment: pCREB immunoblotting of cytosols of mouse cortical neurons; format: cell-based; details: 48 h, same concentrations
Procedure: as §3

[11] = pre-treatment 24 h (midi-GAGR, alginate, dextran 1 μM; LA-GAGR 0.1 μM; HA-GAGR 0.01 μM), then 10 μM 4HNE 24 h
[12] = pre-treatment 24 h (same concentrations), then 2 μM Aβ42 peptide 48 h
[13] = pre-treatment 24 h (same concentrations), then 50 μM H2O2 24 h

| Compound | fold change in average total neurite length vs vehicle [2] | percent of neuron death [4, 11] | percent of neuron death [4, 12] | percent of neuron death [4, 13] | effect of inhibitor pre-treatment on average intensity of pCREB in midi-GAGR-treated neurons [6] | other results |
| --- | --- | --- | --- | --- | --- | --- |
| alginate | did not enhance neuritogenesis | reduced | did not decrease | did not reduce | – | increase in levels of nuclear p-CREB [1]: not significantly increased; increase in levels of nuclear p-CREB [3]: not significantly increased; 6-OHDA-induced cell death [5]: did not |
| CS(=O)(=O)c1cccc(CNc2nc(Nc3ccc4c(c3)CCC(=O)N4)ncc2C(F)(F)F)c1 [PF-573228] | – | – | – | – | did not decrease | – |
| Cc1c[nH]c(/C=C2\C(=O)Nc3ccccc32)c1CCC(=O)O [SU5402] | – | – | – | – | significantly decreased | percent of dead cells ([7]; SU5402 4 μM alone, no 4HNE): did not increase; percent of dead cells ([7]; SU5402 4 μM pre-treatment 6 h, then 10 μM 4HNE): ~80% |
| N#CC(=C(/N)Sc1ccccc1N)/C(C#N)=C(\N)Sc1ccccc1N [U0126] | – | – | – | – | significantly decreased | – |
| CN([C@@H](Cc1ccc(OS(=O)(=O)c2cccc3cnccc23)cc1)C(=O)N1CCN(c2ccccc2)CC1)S(=O)(=O)c1cccc2cnccc12 [KN-62] | – | – | – | – | decreased slightly but still statistically significantly | – |
| [D-Glc(β1→4)D-GlcA(β1→4)D-Glc(β1→4)L-Rha(α1→3)]n [LA-GAGR] | ~1.6 fold | 10% | ~10% | ~13% | – | antioxidant capacity, ABTS assay [8]: 15.4 μM Trolox; average intensity of nuclear pCREB vs vehicle [9]: ~2 fold; levels of pCREB by immunoblotting vs control [10]: significantly increased |
